3 compounds from PubChem BioAssay AID1259407 (Chemical Carcinogenesis Research Information System (CCRIS), 2018) can be followed below.

For this data set, the system named is CCRIS mutagenicity, Ames/micronucleus/aberration tests. As to the kind of experiment: CCRIS mutagenicity studies.
Setting [1] is: Test System: AMES SALMONELLA TYPHIMURIUM, Strain/Indicator: TA98, Metabolic Activation: NONE, Method: PREINCUBATION
Setting [2] is: Test System: AMES SALMONELLA TYPHIMURIUM, Strain/Indicator: TA98, Metabolic Activation: NONE, Method: STANDARD PLATE.
[3] abbreviates: Test System: AMES SALMONELLA TYPHIMURIUM, Strain/Indicator: TA98, Metabolic Activation: RAT, LIVER, S-9, AROCLOR 1254, Method: STANDARD PLATE.
[4] abbreviates: Test System: AMES SALMONELLA TYPHIMURIUM, Strain/Indicator: TA100, Metabolic Activation: NONE, Method: PREINCUBATION
Setting [5] is: Test System: AMES SALMONELLA TYPHIMURIUM, Strain/Indicator: TA100, Metabolic Activation: NONE, Method: STANDARD PLATE.
Setting [6] is: Test System: AMES SALMONELLA TYPHIMURIUM, Strain/Indicator: TA100, Metabolic Activation: RAT, LIVER, S-9, AROCLOR 1254, Method: STANDARD PLATE.

Activity calls are given as the source filed them. No rule for the calls is given here.

Regarding `Cc1c(N(C)C)c(=O)n(-c2ccccc2)n1C`, the mutagenic call is, setting by setting: (Test System: AMES SALMONELLA TYPHIMURIUM, Strain/Indicator: TA97, Metabolic Activation: NONE, Method: STANDARD PLATE) “inactive; negative”; (Test System: AMES SALMONELLA TYPHIMURIUM, Strain/Indicator: TA97, Metabolic Activation: RAT, LIVER, S-9, AROCLOR 1254, Method: STANDARD PLATE) “inactive; negative”; (Test System: AMES SALMONELLA TYPHIMURIUM, Strain/Indicator: TA98, Metabolic Activation: GUINEA PIG, LIVER, S-9, PCB, Method: PREINCUBATION) “inactive; negative”; (Test System: AMES SALMONELLA TYPHIMURIUM, Strain/Indicator: TA98, Metabolic Activation: HAMSTER, LIVER, S-9, PCB, Method: PREINCUBATION) “inactive; negative”; (Test System: AMES SALMONELLA TYPHIMURIUM, Strain/Indicator: TA98, Metabolic Activation: MOUSE, LIVER, S-9, PCB, Method: PREINCUBATION) “inactive; negative”; under setting [1], “inactive; negative”. The mutagenic call is “inactive; negative” under setting [2]; “inactive; negative” under setting [3]; “inactive; negative” (Test System: AMES SALMONELLA TYPHIMURIUM, Strain/Indicator: TA98, Metabolic Activation: RAT, LIVER, S-9, PCB, Method: PREINCUBATION); “inactive; negative” (Test System: AMES SALMONELLA TYPHIMURIUM, Strain/Indicator: TA100(FR1), Metabolic Activation: NONE, Method: STANDARD PLATE); “inactive; negative” (Test System: AMES SALMONELLA TYPHIMURIUM, Strain/Indicator: TA100(FR1), Metabolic Activation: RAT, LIVER, S-9, PHENOBARBITAL AND 3-METHYLCHOLANTHRENE, Method: STANDARD PLATE); “inactive; negative” (Test System: AMES SALMONELLA TYPHIMURIUM, Strain/Indicator: TA100, Metabolic Activation: GUINEA PIG, LIVER, S-9, PCB, Method: PREINCUBATION). The mutagenic call is, setting by setting: (Test System: AMES SALMONELLA TYPHIMURIUM, Strain/Indicator: TA100, Metabolic Activation: HAMSTER, LIVER, S-9, PCB, Method: PREINCUBATION) “inactive; negative”; (Test System: AMES SALMONELLA TYPHIMURIUM, Strain/Indicator: TA100, Metabolic Activation: MOUSE, LIVER, S-9, PCB, Method: PREINCUBATION) “inactive; negative”; under setting [4], “inactive; negative”; under setting [5], “inactive; negative”; under setting [6], “inactive; negative”; (Test System: AMES SALMONELLA TYPHIMURIUM, Strain/Indicator: TA100, Metabolic Activation: RAT, LIVER, S-9, PCB, Method: PREINCUBATION) “inactive; negative”. For the same compound, the mutagenic call was “inactive; negative” (Test System: AMES SALMONELLA TYPHIMURIUM, Strain/Indicator: TA100, Metabolic Activation: RAT, LIVER, S-9, PHENOBARBITAL AND 3-METHYLCHOLANTHRENE, Method: STANDARD PLATE); “inactive; negative” (Test System: AMES SALMONELLA TYPHIMURIUM, Strain/Indicator: TA102, Metabolic Activation: NONE, Method: STANDARD PLATE); “inactive; negative” (Test System: AMES SALMONELLA TYPHIMURIUM, Strain/Indicator: TA102, Metabolic Activation: RAT, LIVER, S-9, AROCLOR 1254, Method: STANDARD PLATE); “inactive; negative” (Test System: AMES SALMONELLA TYPHIMURIUM, Strain/Indicator: TA104, Metabolic Activation: NONE, Method: STANDARD PLATE); “inactive; negative” (Test System: AMES SALMONELLA TYPHIMURIUM, Strain/Indicator: TA104, Metabolic Activation: RAT, LIVER, S-9, AROCLOR 1254, Method: STANDARD PLATE); “inactive; negative” (Test System: CHINESE HAMSTER V-79, Strain/Indicator: V-79/6-THIOGUANINE, Metabolic Activation: NONE). Further, the mutagenic call by setting is: (Test System: CHINESE HAMSTER V-79, Strain/Indicator: V-79/6-THIOGUANINE, Metabolic Activation: RAT, LIVER, HEPATOCYTES) “inactive; negative”; (Test System: CHINESE HAMSTER V-79, Strain/Indicator: V-79/OUABAIN, Metabolic Activation: NONE) “inactive; negative”; (Test System: CHINESE HAMSTER V-79, Strain/Indicator: V-79/OUABAIN, Metabolic Activation: RAT, LIVER, HEPATOCYTES) “inactive; negative”.

In the case of `O=[N+]([O-])c1ccc2ccc3cc4c(c5ccc1c2c35)C=CCC4`, the mutagenic call by setting is: (Test System: AMES SALMONELLA TYPHIMURIUM, Strain/Indicator: TA98(1,8-DNP6), Metabolic Activation: NONE, Method: STANDARD PLATE) “active; positive”; (Test System: AMES SALMONELLA TYPHIMURIUM, Strain/Indicator: TA98(1,8-DNP6), Metabolic Activation: RAT, LIVER, S-9, AROCLOR 1254, Method: STANDARD PLATE) “active; positive”; (Test System: AMES SALMONELLA TYPHIMURIUM, Strain/Indicator: TA98(NR), Metabolic Activation: NONE, Method: STANDARD PLATE) “active; positive”; (Test System: AMES SALMONELLA TYPHIMURIUM, Strain/Indicator: TA98(NR), Metabolic Activation: RAT, LIVER, S-9, AROCLOR 1254, Method: STANDARD PLATE) “active; positive”; under setting [2], “active; positive”; under setting [3], “active; positive”. Besides, the mutagenic call was “inactive; negative” under setting [5] and “active; positive” under setting [6].

On to `CC(=O)C(C)=O`, for which the mutagenic call is “inactive; negative” under setting [1]; “inactive; negative” (Test System: AMES SALMONELLA TYPHIMURIUM, Strain/Indicator: TA98, Metabolic Activation: RAT, LIVER, S-9, AROCLOR 1254, Method: PREINCUBATION); “inactive; negative” under setting [4]; “active; positive” under setting [5]; “inactive; negative” (Test System: AMES SALMONELLA TYPHIMURIUM, Strain/Indicator: TA100, Metabolic Activation: RAT, LIVER, S-9, AROCLOR 1254, Method: PREINCUBATION); “active; positive” (Test System: AMES SALMONELLA TYPHIMURIUM, Strain/Indicator: TA100, Metabolic Activation: RAT, LIVER, S-9, PHENOBARBITAL, Method: STANDARD PLATE). The mutagenic call reads like this: (Test System: AMES SALMONELLA TYPHIMURIUM, Strain/Indicator: TA102, Metabolic Activation: NONE, Method: PREINCUBATION) “active; positive”; (Test System: AMES SALMONELLA TYPHIMURIUM, Strain/Indicator: TA102, Metabolic Activation: RAT, LIVER, S-9, AROCLOR 1254, Method: PREINCUBATION) “active; positive”; (Test System: AMES SALMONELLA TYPHIMURIUM, Strain/Indicator: TA104, Metabolic Activation: NONE, Method: PREINCUBATION) “active; positive”; (Test System: AMES SALMONELLA TYPHIMURIUM, Strain/Indicator: TA1535, Metabolic Activation: NONE, Method: PREINCUBATION) “inactive; negative”; (Test System: AMES SALMONELLA TYPHIMURIUM, Strain/Indicator: TA1537, Metabolic Activation: NONE, Method: PREINCUBATION) “inactive; negative”; (Test System: AMES SALMONELLA TYPHIMURIUM, Strain/Indicator: TA1538, Metabolic Activation: NONE, Method: PREINCUBATION) “inactive; negative”. For the same compound, where the note is “Test System: E. COLI, Strain/Indicator: WP2 UVRA, Metabolic Activation: NONE, Method: PREINCUBATION”, the mutagenic call was “inactive; negative”.
